Measured values: PubChem BioAssay (NCI)
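1) Cells in 96-well plates. 2) Compound, 48 h, 5 concentrations. 3) Linear interpolation between surrounding doses. 4) Unreached endpoint = highest concentration. TGI is the concentration that stops growth completely.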

Assays:
Assay in all cases: NCI tumour cell line growth inhibition, 48 h
OVCAR-4 ovarian = system: OVCAR-4 ovarian
MOLT-4 leukemia = system: MOLT-4 leukemia
LOX IMVI melanoma = system: LOX IMVI melanoma
T-47D breast = system: T-47D breast
NCI/ADR-RES ovarian = system: NCI/ADR-RES ovarian
HT29 colon = system: HT29 colon
U251 CNS = system: U251 CNS
A549 NSCLC = system: A549 NSCLC
TK-10 renal = system: TK-10 renal
CAKI-1 renal = system: CAKI-1 renal
NCI-H460 lung = system: NCI-H460 lung
HCT-15 colon = system: HCT-15 colon
OVCAR-5 ovarian = system: OVCAR-5 ovarian
M14 melanoma = system: M14 melanoma
MDA-N = system: MDA-N
PC-3 prostate = system: PC-3 prostate
SN12C renal = system: SN12C renal
K-562 leukemia = system: K-562 leukemia
CCRF-CEM leukemia = system: CCRF-CEM leukemia

Structure (SMILES) | TGI (OVCAR-4 ovarian) | TGI (MOLT-4 leukemia) | TGI (LOX IMVI melanoma) | TGI (T-47D breast) | TGI (NCI/ADR-RES ovarian) | TGI (HT29 colon) | TGI (U251 CNS) | TGI (A549 NSCLC) | TGI (TK-10 renal) | TGI (CAKI-1 renal) | TGI (NCI-H460 lung) | TGI (HCT-15 colon) | TGI (OVCAR-5 ovarian) | TGI (M14 melanoma) | TGI (MDA-N) | TGI (PC-3 prostate) | TGI (SN12C renal) | TGI (K-562 leukemia) | TGI (CCRF-CEM leukemia)
O=C1c2ccccc2C(=O)c2c(OCC3CO3)ccc(OCC3CO3)c21 (configuration not stated) | 30.9 µM | 0.95 µM | 0.515 µM | 24.1 µM | 8.73 µM | 15.1 µM | 12.1 µM | 22.2 µM | 53.1 µM | 10.6 µM | 8.86 µM | 4.5 µM | 30.9 µM | 4.78 µM | 23.8 µM | 12 µM | 4.74 µM | 5.96 µM | 0.393 µM
O=C(NO)c1cccc(OCc2ccc(Br)cc2)c1 | > 100 µM | 18.3 µM | > 34.8 µM | 23.9 µM | 28.4 µM | 35.8 µM | > 53.8 µM | > 58.5 µM | > 100 µM | 15 µM | 14 µM | > 100 µM | > 70.7 µM | 20.1 µM | 27.5 µM | 49.9 µM | 12.8 µM | > 47.5 µM | > 20 µM
CN(C)c1ccc(N=Nc2cccc3ccoc23)cc1 | > 100 µM | > 100 µM | > 100 µM | > 100 µM | > 100 µM | > 100 µM | > 100 µM | > 100 µM | > 100 µM | > 100 µM | > 100 µM | > 100 µM | > 100 µM | > 100 µM | > 100 µM | > 100 µM | > 100 µM | > 100 µM | > 100 µM
CC(=O)N1NC(c2ccccc2)=CC(=O)/C1=C/C(=O)c1ccccc1 | > 100 µM | > 100 µM | > 100 µM | > 100 µM | > 100 µM | > 100 µM | > 100 µM | > 100 µM | > 100 µM | > 100 µM | > 100 µM | > 100 µM | > 100 µM | > 100 µM | > 100 µM | > 100 µM | > 100 µM | > 100 µM | > 100 µM
CCCSc1cc(Cl)c(C)cc1S(=O)(=O)n1cc[nH]c1=O | > 100 µM | > 100 µM | > 100 µM | > 100 µM | > 100 µM | > 100 µM | > 100 µM | > 100 µM | > 100 µM | > 100 µM | > 100 µM | > 100 µM | > 100 µM | > 100 µM | > 100 µM | > 100 µM | > 100 µM | > 100 µM | > 100 µM
C[C@]12CC[C@@H]3c4ccc(OC(=O)c5ccccc5)cc4CC[C@H]3[C@@H]1CCC2OC(=O)c1cccc2c(=O)c3ccccc3[nH]c12 (some centres not stated) | 33.8 µM | > 100 µM | 31 µM | 60.2 µM | 39.9 µM | 20.7 µM | 29.9 µM | 31.5 µM | 39.1 µM | 58.9 µM | 32.2 µM | 29 µM | 46.1 µM | 37.3 µM | 27.8 µM | 29.8 µM | 30.1 µM | > 100 µM | > 100 µM
O=C(O)c1ccc(Nc2ccnc3cc(Cl)ccc23)cc1O | > 100 µM | > 100 µM | > 100 µM | > 100 µM | > 100 µM | > 100 µM | > 100 µM | > 100 µM | > 100 µM | > 100 µM | > 100 µM | > 100 µM | > 100 µM | > 100 µM | > 100 µM | > 100 µM | > 100 µM | > 100 µM | > 100 µM
COC(=O)c1ccccc1C1CN=NC12Cc1c(C)cc(C)cc1C2=O (configuration not stated) | > 100 µM | > 100 µM | > 100 µM | > 100 µM | > 100 µM | > 100 µM | > 100 µM | > 100 µM | > 100 µM | > 100 µM | > 100 µM | > 100 µM | > 100 µM | > 100 µM | > 100 µM | > 100 µM | > 100 µM | > 100 µM | > 100 µM
